Data on 21 compounds can be found in US11247990B1, “Bicyclic fused pyridine compounds as inhibitors of TAM kinases” (ARRAY BIOPHARMA INC., priority 2017, dated 2022).

By IC50 is commonly meant the point on the concentration scale where inhibition reaches its midpoint.

Holding throughout (settings): averaged IC50
Assay [1] deals with His-tagged recombinant human AXL cytoplasmic domain (Homo sapiens (Human), UniProt P30530). Briefly: AXL Enzyme Assay (LanthaScreen Eu Kinase Binding, TR-FRET). In a few lines: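 Compound displacement measured by TR-FRET after 60 min at 22 °C, using Eu-based LanthaScreen binding technology. Ratiometric emission converted to percent of control, fitted to a 4-parameter logistic curve, with IC50 at 50 POC.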
(In TR-FRET formats the signal depends on donor and acceptor labels being close together.)

Assay [2] has as its target His-tagged recombinant human MER cytoplasmic domain (Homo sapiens (Human), UniProt Q12866). The experiment in a line: MER Enzyme Assay (LanthaScreen Eu Kinase Binding, TR-FRET). In a few lines:
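Percent of control, derived from ratiometric TR-FRET emission, was fitted to a 4-parameter logistic curve and IC50 taken at 50 POC. Binding was read after 60 min at 22 °C using Eu-based LanthaScreen technology and recombinant His-tagged MER cytoplasmic domain.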

Assay [3] has as its target GST-tagged recombinant human TYRO3 kinase domain (Homo sapiens (Human), UniProt Q06418). Briefly: TYRO3 Enzyme Assay (LanthaScreen Eu Kinase Binding, TR-FRET). In short, it runs like this: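 LanthaScreen Eu binding (tracer displacement) format read by TR-FRET after 60 min at 22 °C. Emission ratio converted to percent of control; IC50 taken where a 4-parameter logistic fit crosses 50 POC.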

Counter-ions that a name gives are not always drawn.

Sequence of His-tagged recombinant human AXL cytoplasmic domain (P30530 473-894): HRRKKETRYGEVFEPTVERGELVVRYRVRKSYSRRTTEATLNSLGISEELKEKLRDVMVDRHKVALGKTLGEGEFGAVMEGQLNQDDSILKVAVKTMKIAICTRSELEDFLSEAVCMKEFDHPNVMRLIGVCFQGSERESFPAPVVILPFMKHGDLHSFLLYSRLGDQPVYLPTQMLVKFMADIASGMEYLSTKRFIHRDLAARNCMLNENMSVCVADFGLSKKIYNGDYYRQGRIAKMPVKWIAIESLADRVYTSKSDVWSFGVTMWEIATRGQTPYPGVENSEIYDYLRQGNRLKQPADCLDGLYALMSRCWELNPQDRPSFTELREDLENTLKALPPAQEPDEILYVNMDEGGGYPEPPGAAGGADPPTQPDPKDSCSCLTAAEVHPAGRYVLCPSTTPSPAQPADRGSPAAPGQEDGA
Sequence of His-tagged recombinant human MER cytoplasmic domain (Q12866 527-999): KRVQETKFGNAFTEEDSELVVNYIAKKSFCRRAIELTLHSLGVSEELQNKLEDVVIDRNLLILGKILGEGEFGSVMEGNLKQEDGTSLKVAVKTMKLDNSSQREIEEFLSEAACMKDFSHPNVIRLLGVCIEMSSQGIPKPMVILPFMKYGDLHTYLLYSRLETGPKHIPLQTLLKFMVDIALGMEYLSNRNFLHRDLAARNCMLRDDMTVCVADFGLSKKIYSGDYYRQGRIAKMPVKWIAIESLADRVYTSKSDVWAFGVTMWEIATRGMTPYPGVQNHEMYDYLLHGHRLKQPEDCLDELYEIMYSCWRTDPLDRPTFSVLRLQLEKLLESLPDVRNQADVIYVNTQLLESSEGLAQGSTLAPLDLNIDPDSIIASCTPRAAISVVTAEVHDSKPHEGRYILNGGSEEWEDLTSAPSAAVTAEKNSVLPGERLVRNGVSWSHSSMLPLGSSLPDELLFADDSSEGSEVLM
Sequence of GST-tagged recombinant human TYRO3 kinase domain (Q06418 518-790): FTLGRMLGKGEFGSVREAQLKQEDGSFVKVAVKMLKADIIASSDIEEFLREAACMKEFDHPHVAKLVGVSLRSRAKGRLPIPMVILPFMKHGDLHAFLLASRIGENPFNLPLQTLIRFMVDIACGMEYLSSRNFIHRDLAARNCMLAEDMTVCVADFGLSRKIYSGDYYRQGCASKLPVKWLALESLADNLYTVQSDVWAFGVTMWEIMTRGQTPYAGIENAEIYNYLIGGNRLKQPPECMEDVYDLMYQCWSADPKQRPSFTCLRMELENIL

As to `CCNc1cc2c(cn1)c(-c1cnn(C(C)(C)C#N)c1)nn2[C@H]1CC[C@@H](Oc2cccnc2C(F)(F)F)CC1` [Example 164, 2-(4-(6-(ethylamino)-1-((1s,4s)-4-((2-(trifluoromethyl)pyridin-3-yl)oxy)cyclohexyl)-1H-pyrazolo[4,3-c]pyridin-3-yl)-1H-pyrazol-1-yl)-2-methylpropanenitrile], the IC50 in assay [1], in assay [2] and in assay [3] was under 0.01 µM throughout.

As for `CNc1cc2c(cn1)c(-c1cnn(C)c1)nn2[C@H]1CC[C@@H](Oc2cccnc2C(C)C)CC1` [Example 165, 1-((1 s,4s)-4-((2-isopropylpyridin-3-yl)oxy)cyclohexyl)-N-methyl(1-methyl-1H-pyrazol-4-yl)-1H-pyrazolo[4,3-c]pyridin-6-amine], the results for the concentration for half-maximal inhibition (IC50) in assay [1], in assay [2] and in assay [3] were under 0.01 µM, under 0.01 µM and 0.01 to 0.1 µM, respectively.

Regarding `CNc1cc2c(cn1)c(-c1cnn(C)c1)nn2[C@H]1CC[C@@H](Oc2nccnc2C(F)(F)F)CC1` [Example 171, N-methyl-3-(1-methyl-1H-pyrazol-4-yl)-1-((1s,4s)-4-((3-(trifluoromethyl)pyrazin-2-yl)oxy)cyclohexyl)-1H-pyrazolo[4,3-c]pyridin-6-amine], the half-inhibitory concentration (IC50) in assay [1], in assay [2] and in assay [3] was under 0.01 µM each time.

As to `CNc1cc2c(cn1)c(-c1cnn(C)c1)nn2[C@H]1CC[C@@H](Oc2nccc(C(F)(F)F)c2F)CC1` [Example 173, 1-((1s,4s)-4-((3-fluoro-4-(trifluoromethyl)pyridin-2-yl)oxy)cyclohexyl)-N-methyl-3-(1-methyl-1H-pyrazol-4-yl)-1H-pyrazolo[4,3-c]pyridin-6-amine], the values for the concentration for half-maximal inhibition (IC50) in assay [1], in assay [2] and in assay [3] were under 0.01 µM, under 0.01 µM and 0.01 to 0.1 µM, respectively.

Take `CNc1cc2c(cn1)c(-c1cnn(C)c1)nn2[C@H]1CC[C@@H](Oc2cc(Cl)cnc2C#N)CC1` [Example 175, 5-chloro-3-(((1s,4s)-4-(3-(1-methyl-1H-pyrazol-4-yl)-6-(methylamino)-1H-pyrazolo[4,3-c]pyridin-1-yl)cyclohexyl)oxy)picolinonitrile]: the half-maximal inhibitory concentration (IC50) in assay [1] was under 0.01 µM; in assay [2] it was under 0.01 µM; in assay [3] it was 0.01 to 0.1 µM.

For the compound `CCNc1cc2c(cn1)c(-c1cnn(C)c1)nn2[C@H]1CC[C@@H](Oc2cccnc2F)CC1` [Example 183, N-ethyl-1-((1s,4s)-4-((2-fluoropyridin-3-yl)oxy)cyclohexyl)-3-(1-methyl-1H-pyrazol-4-yl)-1H-pyrazolo[4,3-c]pyridin-6-amine], the IC50 in assay [1], in assay [2] and in assay [3] was under 0.01 µM throughout.

Take `CCNc1cc2c(cn1)c(-c1cnn(C)c1)nn2[C@H]1CC[C@@H](Oc2cccnc2C(F)(F)F)CC1` [Example 184, N-ethyl-3-(1-methyl-1H-pyrazol-4-yl)-1-((1s,4s)-4-((2-(trifluoromethyl)pyridin-3-yl)oxy)cyclohexyl)-1H-pyrazolo[4,3-c]pyridin-6-amine]: the IC50 in assay [1], in assay [2] and in assay [3] was under 0.01 µM throughout.

On to `CCNc1cc2c(cn1)c(-c1cnn(C)c1)nn2[C@H]1CC[C@@H](Oc2cccnc2C#N)CC1` [Example 188, 3-(((1s,4s)-4-(6-(ethylamino)-3-(1-methyl-1H-pyrazol-4-yl)-1H-pyrazolo[4,3-c]pyridin-1-yl)cyclohexyl)oxy)picolinonitrile], for which the IC50 in assay [1], in assay [2] and in assay [3] was under 0.01 µM each time.

With `CCNc1cc2c(cn1)c(-c1cnn(C)c1)nn2[C@H]1CC[C@@H](Oc2nccnc2CC)CC1` [Example 190, N-ethyl-1-((1s,4s)-4-((3-ethylpyrazin-2-yl)oxy)cyclohexyl)-3-(1-methyl-1H-pyrazol-4-yl)-1H-pyrazolo[4,3-c]pyridin-6-amine], the IC50 in assay [1] was under 0.01 µM; in assay [2], under 0.01 µM; in assay [3], 0.01 to 0.1 µM.

Turning to `CCNc1cc2c(cn1)c(-c1cnn(C)c1)nn2[C@H]1CC[C@@H](Oc2nccnc2C(F)(F)F)CC1` [Example 194, N-ethyl-3-(1-methyl-1H-pyrazol-4-yl)-1-((1s,4s)-4-((3-(trifluoromethyl)pyrazin-2-yl)oxy)cyclohexyl)-1H-pyrazolo[4,3-c]pyridin-6-amine], the concentration for half-maximal inhibition (IC50) in assay [1], in assay [2] and in assay [3] was under 0.01 µM in each case.

As for `CCNc1cc2c(cn1)c(-c1cnn(C)c1)nn2[C@H]1CC[C@@H](Oc2nccc(C(F)(F)F)c2F)CC1` [Example 198, N-ethyl-1-((1s,4s)-4-((3-fluoro-4-(trifluoromethyl)pyridin-2-yl)oxy)cyclohexyl)-3-(1-methyl-1H-pyrazol-4-yl)-1H-pyrazolo[4,3-c]pyridin-6-amine], the IC50 in assay [1] was under 0.01 µM; in assay [2], under 0.01 µM; in assay [3], 0.01 to 0.1 µM.

For `C#Cc1ncccc1OC1CCC(n2nc(-c3cnn(C)c3)c3cnc(NCC)cc32)CC1` (stereo not drawn) [Example 199, N-ethyl-1-((1s,4s)-4-((2-ethynylpyridin-3-yl)oxy)cyclohexyl)-3-(1-methyl-1H-pyrazol-4-yl)-1H-pyrazolo[4,3-c]pyridin-6-amine], the concentration for half-maximal inhibition (IC50) in assay [1], in assay [2] and in assay [3] was under 0.01 µM throughout.

For `CNc1cc2c(cn1)c(-c1cnn(C[C@H](O)CO)c1)nn2[C@H]1CC[C@@H](Oc2cccnc2C(F)(F)F)CC1` [Example 204, (S)-3-(4-(6-(methylamino)-1-((1s,4R)-4-((2-(trifluoromethyl)pyridin-3-yl)oxy)cyclohexyl)-1H-pyrazolo[4,3-c]pyridin-3-yl)-1H-pyrazol-1-yl)propane-1,2-diol hydrochloride], the 50% inhibitory concentration (IC50) in assay [1], in assay [2] and in assay [3] was under 0.01 µM in each case.

For the compound `CCNc1cc2c(cn1)c(-c1cnn(CC(CO)CO)c1)nn2[C@H]1CC[C@@H](Oc2cccnc2C(F)(F)F)CC1` [Example 205, 2-((4-(6-(ethylamino)-1-((1s,4s)-4-((2-(trifluoromethyl)pyridin-3-yl)oxy)cyclohexyl)-1H-pyrazolo[4,3-c]pyridin-3-yl)-1H-pyrazol-1-yl)methyl)propane-1,3-diol], the IC50 in assay [1], in assay [2] and in assay [3] was under 0.01 µM each time.

In the case of `CNc1cc2c(cn1)c(-c1cnn(C[C@@H](O)CO)c1)nn2[C@H]1CC[C@@H](Oc2cccnc2C(F)(F)F)CC1` [Example 206, ®-3-(4-(6-(methylamino)-1-((1s,4s)-4-((2-(trifluoromethyl)pyridin-3-yl)oxy)cyclohexyl)-1H-pyrazolo[4,3-c]pyridin-3-yl)-1H-pyrazol-1-yl)propane-1,2-diol], the IC50 in assay [1], in assay [2] and in assay [3] was under 0.01 µM in each case.

As to `CCNc1cc2c(cn1)c(-c1cnn(C(CO)CO)c1)nn2[C@H]1CC[C@@H](Oc2cccnc2C(F)(F)F)CC1` [Example 207, 2-(4-(6-(ethylamino)-1-((1s,4s)-4-((2-(trifluoromethyl)pyridin-3-yl)oxy)cyclohexyl)-1H-pyrazolo[4,3-c]pyridin-3-yl)-1H-pyrazol-1-yl)propane-1,3-diol], the concentration for half-maximal inhibition (IC50) in assay [1], in assay [2] and in assay [3] was under 0.01 µM throughout.

Regarding `CCNc1cc2c(cn1)c(-c1cnn(C[C@H](O)CO)c1)nn2[C@H]1CC[C@@H](Oc2cccnc2C(F)(F)F)CC1` [Example 208, (S)-3-(4-(6-(ethylamino)-1-((1s,4R)-4-((2-(trifluoromethyl)pyridin-3-yl)oxy)cyclohexyl)-1H-pyrazolo[4,3-c]pyridin-3-yl)-1H-pyrazol-1-yl)propane-1,2-diol], the IC50 in assay [1], in assay [2] and in assay [3] was under 0.01 µM throughout.

`CCNc1cc2c(cn1)c(-c1cnn(C[C@@H](O)CO)c1)nn2[C@H]1CC[C@@H](Oc2cccnc2C(F)(F)F)CC1` [Example 209, ®-3-(4-(6-(ethylamino)-1-((1s,4R)-4-((2-(trifluoromethyl)pyridin-3-yl)oxy)cyclohexyl)-1H-pyrazolo[4,3-c]pyridin-3-yl)-1H-pyrazol-1-yl)propane-1,2-diol]: the concentration for half-maximal inhibition (IC50) in assay [1], in assay [2] and in assay [3] was under 0.01 µM each time.

Take `CNc1cc2c(cn1)c(-c1cnn(C(CO)CO)c1)nn2[C@H]1CC[C@@H](Oc2cccnc2C(F)(F)F)CC1` [Example 210, 2-(4-(6-(methylamino)-1-((1 s,4s)-4-((2-(trifluoromethyl)pyridin-3-yl)oxy)cyclohexyl)-1H-pyrazolo[4,3-c]pyridin-3-yl)-1H-pyrazol-1-yl)propane-1,3-diol]: the concentration for half-maximal inhibition (IC50) in assay [1], in assay [2] and in assay [3] was under 0.01 µM each time.

`CNc1cc2c(cn1)c(-c1cnn(CCS(C)(=O)=O)c1)nn2[C@H]1CC[C@@H](Oc2nccnc2C)CC1` [Example 211, N-methyl-1-((1s,4s)-4-((3-methylpyrazin-2-yl)oxy)cyclohexyl)-3-(1-(2-(methylsulfonyl)ethyl)-1H-pyrazol-4-yl)-1H-pyrazolo[4,3-c]pyridin-6-amine]: the 50% inhibitory concentration (IC50) in assay [1] is under 0.01 µM; in assay [2], under 0.01 µM; in assay [3], 0.01 to 0.1 µM.

In the case of `CNc1cc2c(cn1)c(-c1cnn(C(C)(C)C#N)c1)nn2[C@H]1CC[C@@H](Oc2nccnc2C)CC1` [Example 212, 2-methyl-2-(4-(6-(methylamino)-1-((1s,4s)-4-((3-methylpyrazin-2-yl)oxy)cyclohexyl)-1H-pyrazolo[4,3-c]pyridin-3-yl)-1H-pyrazol-1-yl)propanenitrile], the IC50 is under 0.01 µM in assay [1], under 0.01 µM in assay [2] and 0.01 to 0.1 µM in assay [3].
